{"source": "patent US20170274014A1", "about": "“COMBINATIONS OF LOW, IMMUNE ENHANCING, DOSES OF MTOR INHIBITORS AND CARS” (Novartis AG, priority 2014, published 2017)", "key": {"PI3K/mTOR": {"tested_on": "PI3K/mTOR", "conditions": "relatively higher concentrations; cited from earlier work"}, "mTOR": {"biological_target": "mTOR (Homo sapiens, UniProt P42345)", "conditions": "low concentration; cited from earlier work"}, "influenza": {"tested_on": "influenza", "conditions": "mice vaccinated against influenza in the presence of rapamycin; cited from earlier work"}, "[1]": {"conditions": "old mice; cited from earlier work"}, "influenza vaccination": {"tested_on": "influenza vaccination", "conditions": "elderly mice, 6 weeks of treatment; cited from earlier work"}, "[2]": {"conditions": "mice; cited from earlier work"}, "[3]": {"tested_on": "NFAT inducible promoter driven luciferase activity", "assay_type": "cell-based", "conditions": "PDL1-Fc coated plate as compared to control treatment by IgG1-Fc; Jurkat JNL cells", "description": "Jurkat cells with NFAT-LUC reporter (JNL) were grown to the density of 0.5×10^6/ml in Jurket cell growth media with puromycin at 0.5 μg/ml. For each transfection 3×10^6 cells were spin down at 100 g for 10 minutes. Four μg DNA per construct were used per transfection. Amaxa Nucleofector solution V and supplement I was mixed and 100 μl was added into the tube with DNA construct. The mixture was then added to the cells and transferred to the electroporation cuvette. Electroporation was done under setting X-001 using Amaxa Nucleofector II Device. 0.5 ml of growth media was added immediately after electroporation and the mixture were transferred into 2 ml growth media in one well of the 6-well plate. After two hours, the rapalogue compound at various concentrations was added to cells. The cells were applied to tissue culture plate wells that were coated by the target. Tissue culture plate was coated with 5 μg/ml of PDL1-Fc or IgG1-Fc or any target for 2 hrs at 37° C., then blocked with the blocking buffer (DPBS with 5% serum) for 30 minutes. The transfected cells were added to the target plate with 100 μl per well and incubated further for 16 hrs. Luciferase One Glo reagent 100 μl was added per well. The samples were incubated for 5 min at 37° C. and then luminescence is measured using Envision plate reader."}}, "data": [{"molecule": "Cn1c(=O)n(-c2ccc(C(C)(C)C#N)cc2)c2c3cc(-c4cnc5ccccc5c4)ccc3ncc21", "note": "[BEZ235, 2-methyl-2-[4-(3-methyl-2-oxo-8-quinolin-3-yl-2,3-dihydro-imidazo[4,5-c]quinolin-1-yl)-phenyl]-propionitrile]", "values": [{"measurement": "concentration giving dual PI3K/mTOR inhibition", "setting": "PI3K/mTOR", "result": "approximately 500 nmol/L"}, {"measurement": "concentration at which mTOR inhibition predominates", "setting": "mTOR", "result": "less than 100 nmol/L"}]}, {"molecule": "CO[C@H]1C[C@@H]2CC[C@@H](C)[C@@](O)(O2)C(=O)C(=O)N2CCCC[C@H]2C(=O)O[C@H]([C@H](C)C[C@@H]2CC[C@@H](O)[C@H](OC)C2)CC(=O)[C@H](C)/C=C(\\C)[C@@H](O)[C@@H](OC)C(=O)[C@H](C)C[C@H](C)/C=C/C=C/C=C/1C", "note": "[rapamycin]", "values": [{"measurement": "Serologic response to influenza as compared to placebo", "setting": "influenza", "result": "broader serologic response"}, {"measurement": "Spontaneous physical activity", "setting": "[1]", "result": "increases spontaneous physical activity"}, {"measurement": "Response to influenza vaccination", "setting": "influenza vaccination", "result": "improved response to influenza vaccination"}, {"measurement": "Lifespan", "setting": "[2]", "result": "extend lifespan"}]}, {"molecule": "PD1 CAR: CAR construct PD1-ECD-TM-4-1BB-CD3zeta, SEQ ID NO: 26", "values": [{"measurement": "Activation of NFAT inducible promoter driven luciferase activity", "setting": "[3]", "result": "significant PD1 induced activation"}]}]}
